Test results: patent publication US20190269703A1, “MATERIALS AND METHODS FOR TREATING CHRONIC COUGH” (Mayo Foundation for Medical Education and Research, priority 2016, published 2019)

What was measured:
[1] = system: postnasal drip; test: Treatment of postnasal drip: nasal spray delivered into the nasal cavity, patient responses evaluated; assay type: in vivo, human; settings: 34 μg/spray diphenhydramine in combination with an anticholinergic and a glucocorticosteroid (mometasone furoate 1.7 mg/5 mL, ipratropium bromide 1 mg/5 mL, diphenhydramine 1.7 mg/5 mL); two sprays to each nostril daily; evaluated after 4 to 6 weeks
Protocol: A composition including mometasone furoate (1.7 mg/5 mL), ipratropium bromide (1 mg/5 mL), and diphenhydramine (1.7 mg/5 mL) was prepared. A specially configured nasal atomizer having a large aerosol plume and a three inch stem was used to bypass the nasal valve area and deliver medication into the nasal cavity. Two sprays were administered to each nostril daily. Patient responses were evaluated after 4 to 6 weeks.

[2] = Sedation / patient tolerance of the nasal spray in use; assay type: in vivo, human; settings: 34 micrograms/spray (or 69 μg daily) to each nostril, triple combination nasal spray; 15,000 units dispensed
Protocol: A specially configured nasal atomizer having a large aerosol plume and a three inch stem was used to bypass the nasal valve area and deliver medication into the nasal cavity. Two sprays were administered to each nostril daily. Patient responses were evaluated after 4 to 6 weeks.
34 micrograms/spray (or 69 μg daily) to each nostril is […] less than the lowest dose (12.5 milligrams) of oral diphenhydramine.

Q: Which arresting postnasal drip [1] does the source give for `CN(C)CCOC(c1ccccc1)c1ccccc1` [Diphenhydramine, diphenhydramine] here?
A: effective

Q: And the sedation [2]?
A: sedation has not been an issue
